We go through one molecule from patent US20110263697A1, “Methods of Reducing Oxidative Modification of a Muscle Cell Protein” (STOKELY-VAN CAMP, INC., priority 2010, published 2011).

This test has as its system myosin heavy chain (MHC) protein in C2C12 myotubes. The test is described as follows: Muscle cell assay: oxidative modification of myosin heavy chain protein after electrical pulse stimulation (OXYBLOT). It counts as cell-based, Mouse. The procedure: Mouse C2C12 myoblasts were purchased from American Type Culture Collection (ATCC; Manassas, Va.) and grown to 90% confluence in high glucose Dubecco's Modified Eagle media (DMEM) with 10% fetal bovine serum (FBS). Myoblasts from the purchased lot were grown in T75 flasks and passaged >5 times prior to plating in collagen coated six-well plates for experimentation. To induce myotube differentiation FBS was replaced with 2% horse serum for 5 days. Myoblasts were grown and myotubes were maintained without antibiotics in a 37° C., 5% CO2 incubator. Western blot analysis for myosin heavy chain (MHC) protein indicated expression by day five with maintenance of steady state protein levels through day eight of differentiation. Electrical pulsing was applied to the myotubes using a C-Pace EP Cell Culture Stimulator (IonOptix; Milton, Mass.). Cells were stimulated to visibly and repetitively contract for 90 minutes at a pulse frequency of 0.5 Hz and a pulse duration of 24 ms. Immediately prior to stimulation, day old media was removed and replaced with 5 ml of fresh differentiation media. Myotubes were lysed and proteins were derivatized to 2,4-dinitrophenylhydrazone (DNP; OXYBLOT method). […] Protein bands were visualized and quantified with a Bio-Rad Chemidoc XRS system. […]

As to `Cc1c(C)c2c(c(C)c1O)CCC(C)(C(=O)O)O2` (centres unmarked) [TROLOX, 6-hydroxy-2,5,7,8-tetramethylchroman-2-carboxylic acid], the “Oxidative modification of MHC protein reduced (% of EPS alone)” value (1 mM TROLOX pre-treatment approx. 18 h prior and again immediately before EPS, 90 min EPS at 0.5 Hz, 24 ms, five independent experiments, FIG. 4) stood at 42±15%. Moreover, the “Oxidative modification of myosin heavy chain protein compared to electrical pulse stimulation alone (FIG. 4)” value (incubated with 1 mM TROLOX and subjected to electrical pulse stimulation) is recorded as “reduced oxidative modification”.
